Measurements as given in ChEMBL document CHEMBL3870365, “Development of 4-Heteroarylamino-1'-azaspiro[oxazole-5,3'-bicyclo[2.2.2]octanes] as α7 Nicotinic Receptor Agonists” (ACS Med Chem Lett, 2017).

Key:
[1] = mouse, in vivo, sc, 0.01 mg/kg, 0.5 h
in vivo [2] = conditions: C57BL/6, mouse, plasma, sc, 0.01 mg/kg
in vivo [3] = conditions: C57BL/6, mouse, brain/plasma, sc, 0.01 mg/kg
[4] = Fraction unbound in C57BL/6 mouse plasma at 0.03 mg/kg, sc after 30 mins; format: ADME, organism-based; conditions: in vivo, 0.5 h
[5] = Plasma concentration in C57BL/6 mouse at 0.03 mg/kg, sc after 30 mins; format: ADME, organism-based
[6] = Ratio of drug level in brain to plasma in C57BL/6 mouse at 0.03 mg/kg, sc after 30 mins; format: ADME, organism-based; conditions: read-out: BPR

Brc1ccc2c(NC3=NC[C@@]4(CN5CCC4CC5)O3)ncnn12
Cp(f) [1]: 50 to 75% | concentration at 0.5 h (in vivo [2]): 7 nM | Kp at 0.5 h (in vivo [3]): 4.9

Clc1ccc2c(NC3=NC[C@@]4(CN5CCC4CC5)O3)ncnn12
Cp(f) [4]: 50 to 75% | concentration at 0.5 h [5]: 18 nM | Kp at 0.5 h [6]: 1.9
